Results reported in doi:10.1101/2025.06.03.657556v1 (biorxiv, 2025).

Tests used:
RhoA = RhoA (Homo sapiens, UniProt P61586); test: surface plasmon resonance; assay type: binding
RhoA (HEK 293F cells) = RhoA (HEK 293F cells) (Homo sapiens, UniProt P61586); test: fluorescent RhoA-GTP probe, F488/F405 ratio, HEK […] cells; assay type: cell-based
RhoA (HEK 293F cells), sequence (P61586 1-190): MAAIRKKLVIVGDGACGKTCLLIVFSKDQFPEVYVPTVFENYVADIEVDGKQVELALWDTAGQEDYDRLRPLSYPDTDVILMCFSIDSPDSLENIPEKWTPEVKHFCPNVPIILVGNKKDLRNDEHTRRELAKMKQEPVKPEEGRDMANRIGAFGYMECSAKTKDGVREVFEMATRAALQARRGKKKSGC

RhoA, sequence (P61586 1-190): as above

SMILES: CCc1cccc([C@@H](O)CO)c1 [AH001]
- Kd (RhoA): 73.2 nM
- IC50 (RhoA (HEK 293F cells)): 25.7 ± 1.18 nM
